Measurements from patent US8748456B2, “Pyrazolo piperidine derivatives as NADPH oxidase inhibitors” (Genkyotex SA, priority 2010, dated 2014).

What was measured:
Format in all cases: cell-based, human
NOX [1] = tested on: T1, NOX; experiment: Amplex Red measurement of NOX activity (extracellular hydrogen peroxide) in DMSO-differentiated HL60 cells; conditions: DPI 10 μM, NOX activity as % of the activity in control cells, 'usually'
T1 construct: rows headed: Residual activity of DPI-treated cells; other: Amplex Red; DPI 10 μM; NOX activity as % of the activity in control cell
Description: Human acute myeloid leukemia cell line HL-60 was cultured in RPMI 1640 (Invitrogen) supplemented with 10% heat-inactivated calf serum, 2 mM glutamine, 100 U/mL penicillin (Sigma), and 100 μg streptomycin (Sigma) at 37° C. under a humidified atmosphere of 5% CO2. HL60 differentiation to the neutrophil phenotype was triggered by adding Me2SO (final concentration 1.25% v/v for 6 days) to the culture medium.
Extracellular hydrogen peroxide was measured using Amplex UltraRed (Molecular Probes). Cells were trypsinized (1× Trypsin-EDTA), collected by centrifugation, and resuspended in HBSS supplemented with 1% glucose. Cells were seeded into black 96-well plates at a density of 50′000 cells in 200 μl testing buffer (HBSS 1% glucose containing 0.005 U/mL horseradish peroxidase (Roche) and 50 μM Amplex Red in the presence or absence of compounds according to the invention. As a control, DPI was included at a final concentration of 10 μM The plates were placed in the fluorescent Optima Fluorescent plate reader and kept at 37° C. during 20 min. Fluorescence was measured for […] with excitation and emission wavelengths of 544 nm and 590 nm respectively. NOX activities were expressed as % of the activity in control cells. […]
The Table 2 below summarizes the percentage of inhibition of NOX activity as measured by Amplex Red using DMSO-differentiated HL60 cells as described above: […]

NOX [2] = tested on: T2, NOX; experiment: H2DCF-DA (DCF fluorescence) in HUVEC stimulated with TGF-β; conditions: NOX activity as % of the activity in control cells, 'usually'
T2 construct: rows headed: Residual activity of DPI-treated cells; other: H2DCF-DA, HUVEC + TGF-β; NOX activity as % of the activity in control ce
Description: HUVEC are cultured in endothelial basal medium supplemented with hydrocortisone (1 μg/mL, CalbioChem), bovine brain extract (12 μg/mL), gentamicin (50 μg/mL, CalbioChem), amphotericin B (50 ng/mL, CalBioChem EGF (10 ng/mL, and 10% FCS until the fourth passage. When the fifth passage was started, cells were cultured with a lower concentration of FCS (2%) in the absence of EGF, if not indicated otherwise. All experiments were done with cells of the fifth passage. The cells were incubated with OxLDL (oxidized low-density lipoprotein) or its buffer as control for 24 h, before detection of O2^− formation.
HUVEC were plated on coverslips and made quiescent overnight in 0.5% BSA before stimulation with TGF-β. Cells were loaded for 10 minutes with 5 μM CM-H2DCFDA in phenol-red-free medium in the dark and then treated with TGF-β (R&D Systems) in the presence or absence of compounds according to the invention. Cells were then visualized by immunofluorescence microscopy after fixation and staining of the nuclei with DAPI or examined live using confocal microscopy. DCF fluorescence was visualized at an excitation wavelength of 488 nm and emission at 515 to 540 nm. […] For calculation, the absorbance at […] was normalized to absorbance at […] for each individual well. […] NOX activities were expressed as % of the activity in control cells. […]

NOX [3] = experiment: Chemiluminescence (luminol) measurement of ROS in cells; conditions: NOX activity as % of the activity in control cells, 'usually'
Description: ROS was measured using the chemiluminescent probe luminol. Cells were cultured and plated as for Amplex Red except that the Amplex Red agent was replaced by 10 μg/mL luminol (Sigma 09235). Light emission was recorded continuously at 37° C. for 60 minutes using the luminescence function of the FluoStar Optima fluorescent plate reader. The mean of the four blank values was subtracted from each corrected value for each time point. NOX activities were expressed as % of the activity in control cells. Residual activity of DPI-treated cells was usually <10%.

NOX [4] = experiment: Nitroblue tetrazolium (NBT) test of intracellular and extracellular superoxide in cells; conditions: DPI 10 μM, NOX activity as % of the activity in control cells, 'usually'
Description: Intracellular and extracellular superoxide was measured by a colorimetric technique using a quantitative nitroblue tetrazolium (NBT) test. SOD-inhibitable conversion of NBT to formazan, a fine blue precipitate, in the presence of superoxide anion was measured using Fluostar Optima spectrometer (BMG labtech). Following incubation with appropriate stimuli, cells were trypsinized (1× Trypsin-EDTA), collected by centrifugation, and washed with PBS to remove medium. 5×10^5 cells were plated on 48-well plates and incubated in Hank's balanced salt solution containing 0.5 mg/mL NBT with or without 800 U/mL SOD in the presence or absence of compounds according to the invention. As a control, DPI was included at a final concentration of 10 μM. After 2.5 h, cells were fixed and washed with methanol to remove non reduced NBT. The reduced formazan was then dissolved in 230 μl of 2M potassium hydroxide and in 280 μl of dimethylsulfoxide. The absorption was measured at 630 nm. For calculation, the absorbance at 630 nm was normalized for each individual well. The mean of the four blank values was subtracted from each corrected value for each time point. NOX activities were expressed as % of the activity in control cells. Residual activity of DPI-treated cells was usually <10%.

Measured: Residual activity of DPI-treated cells

c1ccc([I+]c2ccccc2)cc1 [DPI, Diphenyl-iodonium]
< 10%: all assays above
